Measurements: ChEMBL document CHEMBL3045223, “Synthesis, nematicidal and antimicrobial properties of Bis-[4-methoxy-3-[3-(4-fluorophenyl)-6-(4-methylphenyl)-2(aryl)-tetrahydro-2H-pyrazolo[3,4-d]thiazol-5-yl]phenyl]methanes” (2009)
In brackets after ≈: the same amount, converted by molar mass. Activity calls are given as the source filed them. The calls are words filed in the database; no cut-off is given here.

How the values were obtained:
Type in all cases: functional
[1] = tested on: Trichophyton mentagrophytes; test: Antifungal activity against Trichophyton mentagrophytes IFO 40996 assessed as growth inhibition at 37 degC for 48 hr; conditions: IFO 40996, 48 h
Trichophyton rubrum [2] = test: Antifungal activity against Trichophyton rubrum IFO 9185 assessed as growth inhibition at 37 degC for 48 hr; conditions: IFO 9185, 48 h
Aspergillus fumigatus [3] = test: Antifungal activity against Aspergillus fumigatus HIC 6094 assessed as growth inhibition at 37 degC for 48 hr; conditions: HIC 6094, 48 h
Candida albicans [4] = test: Antifungal activity against Candida albicans ATCC 10231 assessed as growth inhibition at 37 degC for 48 hr
[5] = tested on: Trichophyton mentagrophytes; test: Antifungal activity against Trichophyton mentagrophytes IFO 40996 assessed as growth inhibition at 300 ug/disc at 37 degC for 48 hr; conditions: for zone of inhibition at 300 µg/disc: IFO 40996, 48 h, read-out: IZ
Trichophyton rubrum [6] = test: Antifungal activity against Trichophyton rubrum IFO 9185 assessed as growth inhibition at 300 ug/disk at 37 degC for 48 hr; conditions: for zone of inhibition at 300 µg/disc: IFO 9185, 48 h, read-out: IZ
Aspergillus fumigatus [7] = test: Antifungal activity against Aspergillus fumigatus HIC 6094 assessed as growth inhibition at 300 ug/disc at 37 degC for 48 hr; conditions: for zone of inhibition at 300 µg/disc: HIC 6094, 48 h, read-out: IZ
Candida albicans [8] = test: Antifungal activity against Candida albicans ATCC 10231 assessed as growth inhibition at 300 ug/disk at 37 degC for 48 hr; conditions: for zone of inhibition at 300 µg/disc: ATCC 10231, 48 h, read-out: IZ
[9] = tested on: Chromobacterium violaceum; test: Antibacterial activity against Chromobacterium violaceum MTCC 2656 assessed as growth arrest at 37 degC for 24 hr; conditions: MTCC 2656, 24 h
Klebsiella aerogenes [10] = test: Antibacterial activity against Enterobacter aerogenes MTCC 39 assessed as growth arrest at 37 degC for 24 hr; conditions: MTCC 39, 24 h
Pseudomonas aeruginosa [11] = test: Antibacterial activity against Pseudomonas aeruginosa MTCC 741 assessed as growth arrest at 37 degC for 24 hr; conditions: MTCC 741, 24 h
Staphylococcus aureus [12] = test: Antibacterial activity against Staphylococcus aureus MTCC 96 assessed as growth arrest at 37 degC for 24 hr; conditions: MTCC 96, 24 h
[13] = tested on: Lysinibacillus sphaericus; test: Antibacterial activity against Lysinibacillus sphaericus MTCC 11 assessed as growth arrest at 37 degC for 24 hr; conditions: MTCC 11, 24 h
Bacillus subtilis [14] = test: Antibacterial activity against Bacillus subtilis MTCC 441 assessed as growth arrest at 37 degC for 24 hr; conditions: MTCC 441, 24 h
[15] = tested on: Chromobacterium violaceum; test: Antibacterial activity against Chromobacterium violaceum MTCC 2656 assessed as inhibition zones at 300 ug/disk at 37 degC for 24 hr; conditions: MTCC 2656, 24 h, read-out: IZ
Klebsiella aerogenes [16] = test: Antibacterial activity against Enterobacter aerogenes MTCC 39 assessed as inhibition zones at 300 ug/disk at 37 degC for 24 hr; conditions: MTCC 39, 24 h, read-out: IZ
Pseudomonas aeruginosa [17] = test: Antibacterial activity against Pseudomonas aeruginosa MTCC 741 assessed as inhibition zones at 300 ug/disk at 37 degC for 24 hr; conditions: MTCC 741, 24 h, read-out: IZ
Staphylococcus aureus [18] = test: Antibacterial activity against Staphylococcus aureus MTCC 96 assessed as inhibition zones at 300 ug/disc at 37 degC for 24 hr; conditions: MTCC 96, 24 h, read-out: IZ
[19] = tested on: Lysinibacillus sphaericus; test: Antibacterial activity against Lysinibacillus sphaericus MTCC 11 assessed as inhibition zones at 300 ug/disk at 37 degC for 24 hr; conditions: MTCC 11, 24 h, read-out: IZ
Bacillus subtilis [20] = test: Antibacterial activity against Bacillus subtilis MTCC 441 assessed as inhibition zones at 300 ug/disk at 37 degC for 24 hr; conditions: MTCC 441, 24 h, read-out: IZ
Caenorhabditis elegans = test: Nematicidal activity against Caenorhabditis elegans assessed as immobility; conditions: read-out: LD50 (the source's name)
[21] = tested on: Ditylenchus myceliophagus; test: Nematicidal activity against Ditylenchus myceliophagus assessed as immobility; conditions: read-out: LD50 (the source's name)

Row | SMILES | MBC [1] [µg/mL] | MIC [1] [µg/mL] | MBC (Trichophyton rubrum [2]) [µg/mL] | MIC (Trichophyton rubrum [2]) [µg/mL] | MBC (Aspergillus fumigatus [3]) [µg/mL] | MIC (Aspergillus fumigatus [3]) [µg/mL] | MBC [9] [µg/mL] | MIC [9] [µg/mL] | MBC (Klebsiella aerogenes [10]) [µg/mL] | MIC (Klebsiella aerogenes [10]) [µg/mL] | MBC (Pseudomonas aeruginosa [11]) [µg/mL] | MIC (Pseudomonas aeruginosa [11]) [µg/mL] | MBC (Staphylococcus aureus [12]) [µg/mL] | MIC (Staphylococcus aureus [12]) [µg/mL] | MBC [13] [µg/mL] | MIC [13] [µg/mL] | MBC (Bacillus subtilis [14]) [µg/mL] | MIC (Bacillus subtilis [14]) [µg/mL] | zone of inhibition at 300 µg/disc [15] [mm] | zone of inhibition at 300 µg/disc (Klebsiella aerogenes [16]) [mm] | further results
1 | COc1ccc(Cc2ccc(OC)c(C3SC4C(=NN(C)C4c4ccc(F)cc4)N3c3ccc(C)cc3)c2)cc1C1SC2C(=NN(C)C2c2ccc(F)cc2)N1c1ccc(C)cc1 (stereo not drawn) | 12.5 (≈ 14.2 µM) | 6.25 (≈ 7.11 µM) | 6.25 (≈ 7.11 µM) | 3.12 (≈ 3.55 µM) | 6.25 (≈ 7.11 µM) | 3.12 (≈ 3.55 µM) | 12.5 (≈ 14.2 µM) | 6.25 (≈ 7.11 µM) | 12.5 (≈ 14.2 µM) | 6.25 (≈ 7.11 µM) | 12.5 (≈ 14.2 µM) | 12.5 (≈ 14.2 µM) | 25 (≈ 28.4 µM) | 12.5 (≈ 14.2 µM) | 25.5 (≈ 29 µM) | 12.5 (≈ 14.2 µM) | 50 (≈ 56.9 µM) | 6.25 (≈ 7.11 µM) | 18 | 20 | MBC (Candida albicans [4]; ATCC 10231, 48 h): 3.12 µg/mL (≈ 3.55 µM); MIC (Candida albicans [4]; ATCC 10231, 48 h): 3.12 µg/mL (≈ 3.55 µM); zone of inhibition at 300 µg/disc [5]: 18 mm; zone of inhibition at 300 µg/disc (Trichophyton rubrum [6]): 20 mm; zone of inhibition at 300 µg/disc (Aspergillus fumigatus [7]): 20 mm; zone of inhibition at 300 µg/disc (Candida albicans [8]): 20 mm; zone of inhibition at 300 µg/disc (Pseudomonas aeruginosa [17]): 14 mm; zone of inhibition at 300 µg/disc (Staphylococcus aureus [18]): 25 mm; zone of inhibition at 300 µg/disc [19]: 13 mm; zone of inhibition at 300 µg/disc (Bacillus subtilis [20]): 13 mm; LC50 (Caenorhabditis elegans): 200 µg/mL (≈ 228 µM); LC50 [21]: 160 µg/mL (≈ 182 µM)
2 | COc1ccc(Cc2ccc(OC)c(C3SC4C(=NN(c5ccc(Cl)cc5)C4c4ccc(F)cc4)N3c3ccc(Cl)cc3)c2)cc1C1SC2C(=NN(c3ccc(Cl)cc3)C2c2ccc(F)cc2)N1c1ccc(Cl)cc1 (stereo not drawn) | 50 (≈ 44.9 µM) | 25 (≈ 22.5 µM) | 12.5 (≈ 11.2 µM) | 12.5 (≈ 11.2 µM) | 25 (≈ 22.5 µM) | 25 (≈ 22.5 µM) | 50 (≈ 44.9 µM) | 25 (≈ 22.5 µM) | 12.5 (≈ 11.2 µM) | 12.5 (≈ 11.2 µM) | 50 (≈ 44.9 µM) | 50 (≈ 44.9 µM) | 50 (≈ 44.9 µM) | 12.5 (≈ 11.2 µM) | 25 (≈ 22.5 µM) | 6.25 (≈ 5.62 µM) | 25 (≈ 22.5 µM) | 12.5 (≈ 11.2 µM) | 18 | 19 | MBC (Candida albicans [4]; ATCC 10231, 48 h): 12.5 µg/mL (≈ 11.2 µM); MIC (Candida albicans [4]; ATCC 10231, 48 h): 12.5 µg/mL (≈ 11.2 µM); inhibition zone (IZ) [5]: inactive; zone of inhibition at 300 µg/disc (Trichophyton rubrum [6]): 15 mm; inhibition zone (IZ) (Aspergillus fumigatus [7]): inactive; inhibition zone (IZ) (Candida albicans [8]): inactive; zone of inhibition at 300 µg/disc (Pseudomonas aeruginosa [17]): 18 mm; zone of inhibition at 300 µg/disc (Staphylococcus aureus [18]): 22 mm; zone of inhibition at 300 µg/disc [19]: 19 mm; zone of inhibition at 300 µg/disc (Bacillus subtilis [20]): 11 mm; LC50 (Caenorhabditis elegans): 380 µg/mL (≈ 341 µM); LC50 [21]: 290 µg/mL (≈ 261 µM)
3 | COc1ccc(Cc2ccc(OC)c(C3SC4C(=NN(c5ccccc5)C4c4ccc(F)cc4)N3c3ccc(C)cc3)c2)cc1C1SC2C(=NN(c3ccccc3)C2c2ccc(F)cc2)N1c1ccc(C)cc1 (stereo not drawn) | 25 (≈ 24.9 µM) | 25 (≈ 24.9 µM) | 50 (≈ 49.8 µM) | 25 (≈ 24.9 µM) | 25 (≈ 24.9 µM) | 25 (≈ 24.9 µM) | 25 (≈ 24.9 µM) | 25 (≈ 24.9 µM) | 25 (≈ 24.9 µM) | 12.5 (≈ 12.5 µM) | 50 (≈ 49.8 µM) | 12.5 (≈ 12.5 µM) | 12.5 (≈ 12.5 µM) | 12.5 (≈ 12.5 µM) | 50 (≈ 49.8 µM) | 25 (≈ 24.9 µM) | 25 (≈ 24.9 µM) | 12.5 (≈ 12.5 µM) | 19 | 17 | MBC (Candida albicans [4]): inactive; MIC (Candida albicans [4]): inactive; zone of inhibition at 300 µg/disc [5]: 9 mm; inhibition zone (IZ) (Trichophyton rubrum [6]): inactive; zone of inhibition at 300 µg/disc (Aspergillus fumigatus [7]): 10 mm; zone of inhibition at 300 µg/disc (Candida albicans [8]): 11 mm; zone of inhibition at 300 µg/disc (Pseudomonas aeruginosa [17]): 18 mm; zone of inhibition at 300 µg/disc (Staphylococcus aureus [18]): 27 mm; zone of inhibition at 300 µg/disc [19]: 16 mm; zone of inhibition at 300 µg/disc (Bacillus subtilis [20]): 14 mm; LC50 (Caenorhabditis elegans): 670 µg/mL (≈ 668 µM); LC50 [21]: 850 µg/mL (≈ 847 µM)
4 | COc1ccc(Cc2ccc(OC)c(C3SC4C(=NN(c5ccc(Cl)cc5)C4c4ccc(F)cc4)N3c3ccc([N+](=O)[O-])cc3)c2)cc1C1SC2C(=NN(c3ccc(Cl)cc3)C2c2ccc(F)cc2)N1c1ccc([N+](=O)[O-])cc1 (stereo not drawn) | 12.5 (≈ 11 µM) | 6.25 (≈ 5.51 µM) | 50 (≈ 44.1 µM) | 25 (≈ 22 µM) | 50 (≈ 44.1 µM) | 25 (≈ 22 µM) | 50 (≈ 44.1 µM) | 12.5 (≈ 11 µM) | 25 (≈ 22 µM) | 12.5 (≈ 11 µM) | 50 (≈ 44.1 µM) | 50 (≈ 44.1 µM) | 25 (≈ 22 µM) | 6.25 (≈ 5.51 µM) | 50 (≈ 44.1 µM) | 12.5 (≈ 11 µM) | 50 (≈ 44.1 µM) | 6.25 (≈ 5.51 µM) | 16 | 20 | MBC (Candida albicans [4]; ATCC 10231, 48 h): 25 µg/mL (≈ 22 µM); MIC (Candida albicans [4]; ATCC 10231, 48 h): 25 µg/mL (≈ 22 µM); inhibition zone (IZ) [5]: inactive; inhibition zone (IZ) (Trichophyton rubrum [6]): inactive; inhibition zone (IZ) (Aspergillus fumigatus [7]): inactive; zone of inhibition at 300 µg/disc (Candida albicans [8]): 15 mm; zone of inhibition at 300 µg/disc (Pseudomonas aeruginosa [17]): 16 mm; zone of inhibition at 300 µg/disc (Staphylococcus aureus [18]): 16 mm; zone of inhibition at 300 µg/disc [19]: 16 mm; zone of inhibition at 300 µg/disc (Bacillus subtilis [20]): 21 mm; LC50 (Caenorhabditis elegans): 350 µg/mL (≈ 309 µM); LC50 [21]: 230 µg/mL (≈ 203 µM)
